US8318950B2, “N-acyl amino acid derivatives, a method for the preparation thereof, a pharmaceutical composition and use thereof as anti-allergic, anti-inflammatory and hypolipidemic agents” (Otkrytoe Aktsionernoe Obschestvo-Otechestvennye Lekarstva, priority 2005, dated 2012)

Legend:
[1] = system: guinea pig blood basophils; test: In vitro ovalbumin (OA)-induced blood basophil degranulation of immunized guinea pig; assay type: cell-based
Experimental: Leukocytes from guinea pig blood were isolated according to the Freemel's method [Immunologicheskiye Metody under edition of G. Frimel/Moscow., “Meditsina” publishers, 1987, p. 222 in the inventor's modification].
Guinea pigs of both sexes weighing from 600 to 800 g were used to conduct the test. The animals were once immunized with a mixture of 10 μg ovalbumin and 100 mg aluminum hydroxide per one animal according to Andersson [Anderson P. Antigen-induced bronchial anaphylaxis in actively sensitized guinea-pigs.//Allergy. 1980. Vol. 35. P. 63-71].
Under ester anesthesia, 15 ml blood were drawn from guinea pig heart. Double precipitation of cells using EDTA and a citrate-containing precipitating liquid was used to isolate basophils in the leukocyte suspension.
Blood was mixed with 5% EDTA.Na2 2H2O (“Sigma”) solution at 9:1 ratio and in 30 minutes it was subjected to mild centrifugation (for 12 minutes at 80 g). Supernatant was collected and centrifuged for 15 minutes at 500 g.
To the remaining cells, a citrate-containing precipitating liquid (3) was added at proportion 3:10 (it was thermostated at 37° C. for 30 minutes). A supernatant fraction enriched by leukocytes was centrifuged for 7 minutes at 100 g. To leukocyte precipitate, 0.85% NaCl solution was added and cellular concentration was brought to 30×10^3 μl.
Protocol of the in vitro basophil degranulation test [Spravochnil po klinicheskim laboratomym metodam issledovaniya (A reference book on clinical-laboratory examination methods)/Edited by E. A. Cost/Moscow, “Meditsina” publishers, 1975, p. 130].
For the test, a centrifuge tube (3 tubes per each sample) was filled with 300 μl cellular suspension, then salt solution of a tested compound (or a salt solution in the control of spontaneous and maximum degranulation) was added and pre-incubated at 37° C. for 15 minutes, then into each tube 300 μl 1% OA solution was added (in the control of spontaneous degranulation a salt solution in the same amount was added) and once more pre-incubated at 37° C. for 10 minutes. Functional leukocyte concentration was 10^4/μl. Samples (100 μl) were taken off from each tube into separate tubes to assess a complete basophil degranulation, and to the remained cells, a cooled salt solution was added (5 ml into each tube) to arrest degranulation reaction, then the tubes were centrifuged for 7 min at 100 g, and from precipitate, preparations for microscopy were prepared. The preparations were fixed and stained according to the method of Seder et al. [Seder R. A. et al. Mouse splenic and bone marrow cell populations that express high—affinity Fcε receptors and produce interleukin-4 are highly enriched in basophils.//Proc. Natl. Acad. USA, 1991, V. 88, P. 2835-2839].
In order to detect a specific basophil granulation, the dye 0.5% alcyanic blue (pH 1.0) was used, nuclei were additionally stained with safranin (0.1% solution in 1% acetic acid). The preparations were used to assess a total degranulation inhibition.
A total degranulation inhibition (DI) (%) was calculated according to the formula: […]
max—% of degranulated basophils at the maximum degranulation (OA)
spontaneous—% of degranulated basophils in spontaneous degranulation (control)
experimental—% of degranulated basophils following exposure to the tested compound.
Assessment of a Complete Basophil Degranulation
Samples selected following basophil degranulation test (100 μl each) were poured into tubes with the dye (0.5% alcyane blue, pH 1.0) at ratio 1:1. Staining was carried out at room temperature for not less than 50 min. Stained basophils were calculated using the Fooks-Rosenthal chamber. Inhibition of a complete basophil degranulation (ICD) was calculated according to the formula: ICD(%)=1−[(Mm(c)−Mm(exper.)]/Mm(c)−Mm(OA)]×100, wherein
M m (c)—mean (by three samples) basophil number in the spontaneous basophil degranulation test
M±m (OA)—mean (by three samples) basophil number in the maximum antigen-induced basophil degranulation test; […]

[2] = system: endogenous hypercholesterolemia in guinea pigs; test: Model of endogenous hypercholesterolemia in guinea pigs (fat loading); assay type: in vivo, guinea pig; conditions: during 20 days, doses from 50 to 1,500 μg/kg

For O=C(O)CCCC(=O)N[C@@H](Cc1c[nH]cn1)C(=O)O [Compound IV, N^α-glutaryl-L-histidine], the “Number of completely degranulated basophils” value (from here on “Number”) ([1]; 10^−3 M) was 2.6 ± 2.6 %, the “Number” value ([1]; 10^−4 M) was 2.9 ± 1.6 % and the “Number” value ([1]; 10^−5 M) was 0%. For the same molecule, the “Number” value ([1]; 10^−6 M) was 3.9 ± 0.6%, the “Number” value ([1]; 10^−7 M) was 9.1 ± 0.8% and the inhibition at 1000 µM ([1]; Cavia porcellus, 10^−3 M, read-out: Complete degranulation inhibition (CDI)) was 99.2 ± 11.2%. For the same molecule, the inhibition at 100 µM ([1]; Cavia porcellus, 10^−4 M, read-out: Complete degranulation inhibition (CDI)) was 99.5 ± 12%, the inhibition at 10 µM ([1]; Cavia porcellus, 10^−5 M, read-out: Complete degranulation inhibition (CDI)) was 114 ± 2.7% and the inhibition at 1 µM ([1]; Cavia porcellus, 10^−6 M, read-out: Complete degranulation inhibition (CDI)) was 90 ± 1.8%. For the same molecule, the inhibition at 0.1 µM ([1]; Cavia porcellus, 10^−7 M, read-out: Complete degranulation inhibition (CDI)) was 76.7 ± 1.5%, the “degranulation inhibition in the test of complete OA-induced degranulation” value ([1]; calcium free medium) was ~100% and the “lowering total cholesterol level at different doses (FIG. 1)” value [2] was “practically similarly effective in lowering total cholesterol level”.
